Values quoted from earlier work, collected in PMC7179723, “Self-Assembly of Minimal Peptoid Sequences” (ACS Macro Letters, 2020).

Details: assembly requires dilution from an organic solution; literature statement
Excerpt: Control of self-assembly using sequence-specific polymers such as peptides and their mimics is a powerful approach to generating functional nanomaterials. Very short self-assembling peptides and their mimics (e.g., ≤ 5 residues) are of special interest since they are more easily scalable and they lead to insight into assembly requirements.[1] Their discovery is nontrivial since assembly propensity (e.g., hydrophobic interactions and hydrogen bonding) and favorable solvent (water) interactions must be balanced among just a few residues.[1]−[3] […] Alternatively, lamellar nanostructures were observed when the dipeptoid was precipitated in water from an ACN solution.

For diphenylalanine [FF], the solubility in water is given as “not directly soluble in water”.
